These results are taken from patent publication US12233068B2, “Combination of active agents for the treatment of progressive fibrosing interstitial lung diseases (PF-ILD)” (Boehringer Ingelheim International GmbH, priority 2017, dated 2025).

In series [1] the test system is FGF plus IL-1β-stimulated proliferation of human lung fibroblasts from patients with IPF. Put plainly: Cell proliferation assay (BrdU incorporation), Experiment B. The series is classed as cell-based. Conditions: for IC50: n=5 donors; for IC50 of PDE4 inhibitor alone compared to IC50 of its combination with Nintedanib (proliferation): IC50 alone / IC50 with 100 nMol/L Nintedanib; for effect of the combination with Nintedanib on inhibition of fibroblast proliferation versus calculated additive curve: measured curve with 100 nMol/L Nintedanib compared with calculated additive curve (Poch & Holzmann). How it is done:
(§1) Lung fibroblasts of IPF-patients (IPF-LF cells) grown in 96-well plates were incubated for min with different concentrations of the PDE4 inhibitors “Compound of formula III”, “Apremilast” or “Roflumilast-N-Oxide” or with a combination of each of the aforementioned PDE4-inhibitors with Nintedanib.
(§2) After compound incubation cells were stimulated with the assay-relevant stimulus and incubated for the assay—relevant time in the presence of the test compounds.
BrdU incorporated in the DNA of proliferating cells was determined by ELISA. BrdU is an analog of the DNA precursor thymidine. In proliferating cells, the DNA has to be replicated before the division can take place. If BrdU is added to the cell culture, proliferating cells will incorporate it into their DNA just like they would incorporate thymidine. The amount of BrdU in the DNA of cells can be detected with specific anti-BrdU fluorescent antibodies followed by flow cytometry or by cellular ELISA with monoclonal antibodies against BrdU.
IPF-lung fibroblasts (passage 5 to 8) were seeded in 96-well cell culture plates at 2500 cells/well with 100 μL/well FBM+supplements. 24 h after seeding the cells were washed once with FBM medium without supplements and then kept in this medium for 24 h starvation.
In experiment B1) the PDE4B-inhibitor of formula III was used as a “test compound” • in rising concentrations either alone (see full circles and black solid curve in FIG. 4) or • in rising concentrations together with a fixed concentration of 100 nMol/L of Nintedanib (see empty circles and grey solid line in FIG. 4).
In experiment B2) Apremilast was used as a “test compound” • in rising concentrations either alone (see full circles and black solid curve in FIG. 5) or • in rising concentrations together with a fixed concentration of 100 nMol/L of Nintedanib (see empty circles and grey solid line in FIG. 5).
In experiment B3) Roflumilast-N-oxide was used as a “test compound” • in rising concentrations either alone (see full circles and black solid curve in FIG. 6) or • in rising concentrations together with a fixed concentration of 100 nMol/L of Nintedanib (see empty circles and grey solid line in FIG. 6).
All test compounds were prepared 1000× in 0.1 mmol/L HCl or DMSO and a 1:3.16 dilution series was performed (in 0.1 mmol/L HCl or DMSO). To obtain 1× concentrated compound medium 1 μl of the 1000×DMSO dilution was added to 999 μl FBM.
48 h after seeding, medium was removed by suction and 90 μl compound- or starvation medium was added for 30 min
30 min after test compound pre-incubation (90 μL), 10 μl of 10× concentrated FGF plus IL-1β was added and the cells were stimulated for 92 h at a temperature of 37° C.
For this purpose the FGF and IL-1β stock solutions (250 μg/mL and 10 μg/mL respectively) were diluted in starvation medium to reach a concentration of 200 ng/mL and 300 pg/mL for FGF and IL-1β respectively. 10 μL of this stimulus medium or starvation medium was added to the indicated wells. The test compound concentration was maintained during the stimulation.
The final FGF concentration was 20 ng/mL. The final IL-1β concentration was 30 pg/mL.
Proliferation was determined by a colorimetric immunoassay for the quantification of cell proliferation, based on the measurement of BrdU incorporation during DNA synthesis. The assay was carried out according to the manufacturer's instructions.
72 h after stimulation a 1:100 dilution of BrdU in starvation medium (resulting concentration 100 μmol/L) was performed and 10 μl added per well (end-concentration per well 10 μmol/l). About 18 h later the BrdU medium was removed by suction. Cells were fixed and denatured for 30 min at room temperature with FixDenat reagent. The reagent was removed by tapping and the anti-BrdU-POD working solution was added (incubation time: 90 min). The plate was washed three times with 200 μL washing buffer before incubation with substrate solution for about 10 min. […]

The subject of series [2] is TGF-β-stimulated α-SMA protein expression of human lung fibroblasts from patients with IPF. In words: α-SMA (smooth muscle actin) protein assay (Western replacement assay, MSD), Experiment A. The series is classed as cell-based. The note with it: for IC50: n=5 donors; for sign of inhibition of TGF-β-stimulated α-SMA protein expression over the concentration/inhibition curve: low PDE4-inhibitor concentrations, alone or in combination with Nintedanib. The protocol:
as §1, §2
α-SMA protein was determined by a Western-replacement assay (MSD) using monoclonal anti smooth muscle actin antibodies.
IPF-lung fibroblasts (passage 5 to 8) were seeded in 96-well cell culture plates at 4500 cells/well with 100 μL/well FBM+supplements. 24 h after seeding the cells were washed once with FBM medium without supplements and starved for 24 h.
In experiment A1) the PDE4B-inhibitor of formula III was used as a “test compound” • in rising concentrations either alone (see full circles and black solid curve in FIG. 1) or • in rising concentrations together with a fixed concentration of 100 nMol/L of Nintedanib (see empty circles and grey solid line in FIG. 1). Experiment A2)
In experiment A2) Apremilast was used as a “test compound” • in rising concentrations either alone (see full circles and black solid curve in FIG. 2) or • in rising concentrations together with a fixed concentration of 100 nMol/L of Nintedanib (see empty circles and grey solid line in FIG. 2). Experiment A3)
In experiment A3) Roflumilast-N-oxide was used as a “test compound” • in rising concentrations either alone (see full circles and black solid curve in FIG. 3) or • in rising concentrations together with a fixed concentration of 100 nMol/L of Nintedanib (see empty circles and grey solid line in FIG. 3). Test Compound Dilutions
All “test compounds” (the PDE4B-inhibitor of formula III, Apremilast or Roflumilast) were prepared 1000× in 0.1 mmol/L HCl or DMSO and a 1:3.16 dilution series was performed (in 0.1 mmol/L HCl or DMSO). To obtain 2× concentrated compound-medium a 1:500 dilution (2 μl of the 1000× dilution was added to 998 μl FBM plus 2 nmol/L PGE2) was prepared.
48 h after seeding, the medium was aspirated and FBM (100 μl per well) was added. After 1 h incubation at 37° C., 90 μl medium containing 2× concentrated compounds (at different concentrations) plus 2× concentrated PGE2 (2 nmol/L) was added for 30 min Final concentration for PGE2 was 1 nmol/L.
30 min after test compound pre-incubation (190 μL), 10 μl of 20× concentrated TGF-β was added and the cells stimulated for 48 h at a temperature of 37° C.
For this purpose the TGF-β stock solution (20 μg/mL reconstituted in 4 mmol/L sterile HCL) was diluted 1:200 in starvation medium to reach a concentration of 100 ng/mL. 10 μL of this TGF-β medium or starvation medium was added to indicated wells. The test compound concentration was maintained during the stimulation. The final TGF-β concentration was […].
48 h after stimulation supernatants were removed and stored at −80° C. for further experiments. Cells were washed once with ice cold PBS and 50 μl RIPA buffer containing 1× protease inhibitor was added per well. Lysates were incubated for 5 minutes on ice before stored at −80° C.
After thawing, 25 μl of each lysate was transferred to the membrane of the multi-array 96 well plate (MSD) and incubated for 2 h at room temperature with gentle shaking. After the incubation time, plates were washed 3 times with 200 μl 1× Tris-wash buffer (MSD) and 150 μl of 3% blocking buffer was added for 1 h. After blocking, plates were washed 3 times with 200 μl 1× Tris-wash buffer and 25 μl of the antibody solution (per plate 0.75 ml 3% blocking buffer, 2.25 ml 1× Tris-wash buffer, 1.2 μl anti-α-SMA antibody (1:2500), 15 μl goat anti-mouse sulfo-tag antibody (1:200) was added for 1 h. After AB-incubation plates were washed 3 times with 200 μl 1× Tris-wash buffer and 150 μl of 1×MSD read buffer was added per well. Plates were measured with Sector Imager (MSD). […]

In another series the test system is human COPD-patients. Conditions: 500 μg daily; cited from earlier work.
The subject of the next series is rat. The note with it: in vivo; cited from earlier work.

SMILES strings stand for the structures. Like-named read-outs stand apart in the source and are kept apart here.

As for `CCOc1cc([C@@H](CS(C)(=O)=O)N2C(=O)c3cccc(NC(C)=O)c3C2=O)ccc1OC` [Apremilast], the IC50 in series [1] (Homo sapiens, Fibroblast, PDE4 inhibitor alone, IPF lung fibroblasts, read-out: IC50, inhibition of FGF plus IL-1β-stimulated proliferation) turned out to be 1800 nM; in series [1] (Homo sapiens, Fibroblast, PDE4 inhibitor in rising concentrations with fixed 100 nMol/L Nintedanib, read-out: IC50, inhibition of FGF plus IL-1β-stimulated proliferation, combination with Nintedanib) it was 1600 nM; in series [2] (Homo sapiens, Fibroblast, PDE4 inhibitor alone, IPF lung fibroblasts, read-out: IC50, inhibition of TGF-β-stimulated α-SMA protein expression), 3000 nM; in series [2] (Homo sapiens, Fibroblast, PDE4 inhibitor in rising concentrations with fixed 100 nMol/L Nintedanib, read-out: IC50, inhibition of TGF-β-stimulated α-SMA protein expression, combination with Nintedanib) it was 2000 nM. Besides, the “IC50 of PDE4 inhibitor alone compared to IC50 of its combination with Nintedanib (proliferation)” value in series [1] worked out at 1.13 fold. Moreover, the “effect of the combination with Nintedanib on inhibition of fibroblast proliferation versus calculated additive curve” value in series [1] was “additive effect”. For the same compound, in series [2], the “sign of inhibition of TGF-β-stimulated α-SMA protein expression over the concentration/inhibition curve” value is listed as “negative inhibitions”.

As to `COC(=O)c1ccc2c(c1)NC(=O)/C2=C(\Nc1ccc(N(C)C(=O)CN2CCN(C)CC2)cc1)c1ccccc1` [Nintedanib], the “inhibitory effect on human lung fibroblasts proliferation (in words)” value in series [1] (Nintedanib alone, 100 nMol/L) is given as “clear inhibitory effect”. Besides, the “inhibitory effect on TGF-β-stimulated α-SMA protein expression (in words)” value in series [2] (100 nM Nintedanib alone) is “no inhibitory effect”. The “Inhibition of TGF-β-stimulated α-SMA protein expression” value in series [2] (100 nMol/L Nintedanib alone, FIGS. 1, 2 and 3) is on record as at most 0.

As for `O=C(Nc1c(Cl)c[n+]([O-])cc1Cl)c1ccc(OC(F)F)c(OCC2CC2)c1` [Roflumilast N-Oxide], the “IC50 of PDE4 inhibitor alone compared to IC50 of its combination with Nintedanib (proliferation)” value in series [1] worked out at 0.82 fold. Moreover, the IC50 in series [1] (PDE4 inhibitor alone, IPF lung fibroblasts, read-out: IC50, inhibition of FGF plus IL-1β-stimulated proliferation) was determined as 0.44 nM; in series [1] (PDE4 inhibitor in rising concentrations with fixed 100 nMol/L Nintedanib, read-out: IC50, inhibition of FGF plus IL-1β-stimulated proliferation, combination with Nintedanib), 0.534 nM; in series [2] (PDE4 inhibitor alone, IPF lung fibroblasts, read-out: IC50, inhibition of TGF-β-stimulated α-SMA protein expression) it was 14 nM; in series [2] (PDE4 inhibitor in rising concentrations with fixed 100 nMol/L Nintedanib, read-out: IC50, inhibition of TGF-β-stimulated α-SMA protein expression, combination with Nintedanib), 8.5 nM. For the same compound, in series [1], the “effect of the combination with Nintedanib on inhibition of fibroblast proliferation versus calculated additive curve” value is listed as “additive effect”. Moreover, in series [2], the “sign of inhibition of TGF-β-stimulated α-SMA protein expression over the concentration/inhibition curve” value is reported as “negative inhibitions”.

On to `O=C(Nc1c(Cl)cncc1Cl)c1ccc(OC(F)F)c(OCC2CC2)c1` [Roflumilast], for which, in the series with human COPD-patients, the “patients with decreased weight” value is reported as 7.5%, the patients with diarrhea was 9.5%, the patients with headache is reported as 4.4% and the patients with nausea was 4.7%. For the same compound, the “gastrointestinal side effects in similar gastric emptying and intestinal transit experiments” value in the series on rat is listed as “clear trend to show gastrointestinal side effects”.
